Measured values published in patent US20070225355A1, “Dietary Compositions for Enhancing Metabolism and Reducing Reactive Oxygen Species” (Elixirin Corporation, priority 2004, published 2007).

What was measured:
oxidation level of DNA = test: Oxidation level of DNA in hippocampus sections (anti-8-hydroxy-2'-deoxyguanosine/8-hydroxyguanosine immunocytochemistry); assay type: in vivo; settings: rat brain hippocampus sections, fed 7 weeks; mean of 5 animals; standard deviation about 15%
Source text: The rats in the experimental group (5 each) were fed either 0.5% (wt/vol) acetyl-L-camitine in water, 1.0% (wt/vol) polyphenol in water; 0.2% (wt/wt) lipoic acid in AIN93M diet, or a combination of the above. Rats were acclimated for one week before experiments. Rats were fed for the above treatment for 7 weeks before tests. Control rats were fed with water and AIN93M diet only. For assaying DNA oxidation, rats from each treatment group (5 animals per group) was anesthetized with ether and perfused with paraformaldehyde. The brain was removed and postfixed for paraffin sections. Sections of hippocampus were incubated with anti-8-hydroxy-2′-deoxyguanosine/8-hydroxyguanosine and visualized by using standard immunocytochemical methods. Quantification of oxidation was done as described in Liu, J K, et al., (Proc. Natl. Acad. Sci USA, 99:1356-2361, 2002). Values are a mean of 5 animals. The standard deviation is about 15%.

Fischer 344 male rats = test: Morris water maze spatial memory test in rats; assay type: in vivo, rat; settings: fed 7 weeks, 4 consecutive days, 4 trials per day, averaged, standard deviation around 20%
Source text: FIG. 1 of 2 depicts measurements of spatial memory in (Fischer 344 male rats) subjected to a water maze test, after treatment with carnitine, lipoic acid, and/or polyphenol. […] The Morris maze task tests spatial memory by requiring rats to fmd a submerged platform in a pool of water using external visual cues (Morris, R. 1984; J. Neurosci. Methods, 11:47-60; Schenk, F. and Morris, R, Exp. Brain Res. 58:11-28, 1985). The rats in the experimental group (5 each) were fed either 0.5% (wt/vol) acetyl-L-carnitine in water, 1.0% (wt/vol) polyphenol in water; 0.2% (wt/wt) lipoic acid in AIN93M diet, or a combination of the above. Rats were acclimated for one week before experiments. Rats were fed for the above treatment for 7 weeks before tests. Trials (4 consecutive days, 4 trials per day) were conducted and the results averaged. The standard deviation is around 20%. Control rats were fed with water and AIN93M diet only.

SMILES: O=C(O)CCCC[C@@H]1CCSS1 (racemic) [lipoic acid]
- DNA oxidation level compared with rats having no treatment (oxidation level of DNA): ~82%
- mastery of the water maze, faster over no treatment (Fischer 344 male rats): ~79%
